Assay: mn = molality of the nth substance listed, in mol/kg
Settings: 350 kPa, Liquid; for apparent molar heat capacity: Extra sensitive DSC

OC[C@@H](O)[C@@H](O)[C@H](O)[C@@H](O)CO [D-sorbitol] + O
Settings	apparent molar heat capacity [J/K/mol]	mass density [kg/m3]
278.15 K, m1 = 0.02	373	1001.46
278.15 K, m1 = 0.04	346.7	1002.79
278.15 K, m1 = 0.069	355.4	1005.09
278.15 K, m1 = 0.1997	360.1	1013.23
278.15 K, m1 = 0.4003	363.3	1025.52
278.15 K, m1 = 0.6991	367.7	1042.94
278.15 K, m1 = 0.9784	372.3	1057.65
278.15 K, m1 = 1.501	372.1	1082.71
278.15 K, m1 = 2.004	383.7	1104.6
283.15 K, m1 = 0.02	391	1001.14
283.15 K, m1 = 0.04	366.7	1002.47
283.15 K, m1 = 0.069	374.6	1004.71
283.15 K, m1 = 0.1997	378.8	1012.74
283.15 K, m1 = 0.4003	381.8	1024.88
283.15 K, m1 = 0.6991	385.6	1042.11
283.15 K, m1 = 0.9784	389.4	1056.73
283.15 K, m1 = 1.501	389.4	1081.57
283.15 K, m1 = 2.004	399.4	1103.19
288.15 K, m1 = 0.02	406	1000.48
288.15 K, m1 = 0.04	382.5	1001.81
288.15 K, m1 = 0.069	389.8	1003.99
288.15 K, m1 = 0.1997	393.7	1011.95
288.15 K, m1 = 0.4003	396.3	1023.96
288.15 K, m1 = 0.6991	399.5	1041
288.15 K, m1 = 0.9784	402.8	1055.55
288.15 K, m1 = 1.501	402	1080.23
288.15 K, m1 = 2.004	411.5	1101.6
293.15 K, m1 = 0.02	418	–
293.15 K, m1 = 0.04	395.4	–
293.15 K, m1 = 0.069	402.5	–
293.15 K, m1 = 0.1997	406.4	–
293.15 K, m1 = 0.4003	408.9	–
293.15 K, m1 = 0.6991	411.6	–
293.15 K, m1 = 0.9784	414.4	–
293.15 K, m1 = 1.501	413.2	–
293.15 K, m1 = 2.004	422	–
298.15 K, m1 = 0.02	429	998.4
298.15 K, m1 = 0.04	406.9	999.67
298.15 K, m1 = 0.069	413.8	1001.72
298.15 K, m1 = 0.1997	417.4	1009.58
298.15 K, m1 = 0.4003	419.5	1021.39
298.15 K, m1 = 0.6991	421.9	1038.13
298.15 K, m1 = 0.9784	424.4	1052.5
298.15 K, m1 = 1.501	422.7	1076.86
298.15 K, m1 = 2.004	430.9	1097.81
303.15 K, m1 = 0.02	439	–
303.15 K, m1 = 0.04	417.1	–
303.15 K, m1 = 0.069	423.6	–
303.15 K, m1 = 0.1997	426.9	–
303.15 K, m1 = 0.4003	428.9	–
303.15 K, m1 = 0.6991	430.9	–
303.15 K, m1 = 0.9784	433.1	–
303.15 K, m1 = 1.501	431.1	–
303.15 K, m1 = 2.004	438.8	–
308.15 K, m1 = 0.02	447	995.35
308.15 K, m1 = 0.04	425.7	996.6
308.15 K, m1 = 0.069	432	998.45
308.15 K, m1 = 0.1997	435.3	1006.4
308.15 K, m1 = 0.4003	437	1018.06
308.15 K, m1 = 0.6991	438.8	1034.6
308.15 K, m1 = 0.9784	440.7	1048.63
308.15 K, m1 = 1.501	438.4	1072.81
308.15 K, m1 = 2.004	445.8	1093.63
313.15 K, m1 = 0.02	455	–
313.15 K, m1 = 0.04	432.5	–
313.15 K, m1 = 0.069	439.5	–
313.15 K, m1 = 0.1997	442.6	–
313.15 K, m1 = 0.4003	444.2	–
313.15 K, m1 = 0.6991	445.8	–
313.15 K, m1 = 0.9784	447.5	–
313.15 K, m1 = 1.501	445.1	–
313.15 K, m1 = 2.004	452.2	–
318.15 K, m1 = 0.02	462	991.53
318.15 K, m1 = 0.04	439.7	992.78
318.15 K, m1 = 0.069	446.1	994.56
318.15 K, m1 = 0.1997	449.1	1002.41
318.15 K, m1 = 0.4003	450.6	–
318.15 K, m1 = 0.6991	452	–
318.15 K, m1 = 0.9784	453.6	–
318.15 K, m1 = 1.501	451	–
318.15 K, m1 = 2.004	457.8	–
